In ChEMBL document CHEMBL3994658, “Synthesis, molecular docking and α-glucosidase inhibition of 2-((5,6-diphenyl-1,2,4-triazin-3-yl)thio)-N-arylacetamides” (Bioorg Med Chem Lett, 2017):
pIC50: −log10 of the molar value.

Assay: Inhibition of Saccharomyces cerevisiae alpha-glucosidase using p-nitrophenyl-alpha-D-glucopyranoside as substrate preincubated for 15 mins followed by substrate addition measured after 30 mins by spectrophotometric method

**Q.** With `COc1ccc(NC(=O)CSc2nnc(-c3ccccc3)c(-c3ccccc3)n2)cc1` as the compound, how does the pIC50 read?
**A.** 4.31

**Q.** With `Cc1ccc(NC(=O)CSc2nnc(-c3ccccc3)c(-c3ccccc3)n2)c(C)c1` as the compound, how does the pIC50 read?
**A.** 4.17

**Q.** With `O=C(CSc1nnc(-c2ccccc2)c(-c2ccccc2)n1)Nc1ccc(C(F)(F)F)cc1` as the compound, how does the pIC50 read?
**A.** 4.46

**Q.** With `COc1ccc(NC(=O)CSc2nnc(-c3ccccc3)c(-c3ccccc3)n2)c([N+](=O)[O-])c1` as the compound, how does the pIC50 read?
**A.** 4.33

**Q.** With `O=C(CSc1nnc(-c2ccccc2)c(-c2ccccc2)n1)Nc1ccc(Cl)cc1` as the compound, how does the pIC50 read?
**A.** 4.85

**Q.** With `Cc1ccc(NC(=O)CSc2nnc(-c3ccccc3)c(-c3ccccc3)n2)cc1` as the compound, how does the pIC50 read?
**A.** 4.28

**Q.** With `CCOc1ccccc1NC(=O)CSc1nnc(-c2ccccc2)c(-c2ccccc2)n1` as the compound, how does the pIC50 read?
**A.** 4.80

**Q.** With `O=C(CSc1nnc(-c2ccccc2)c(-c2ccccc2)n1)Nc1ccc(Cl)cc1Cl` as the compound, how does the pIC50 read?
**A.** 4.43

**Q.** With `Cc1ccccc1NC(=O)CSc1nnc(-c2ccccc2)c(-c2ccccc2)n1` as the compound, how does the pIC50 read?
**A.** 4.14

**Q.** With `O=C(CSc1nnc(-c2ccccc2)c(-c2ccccc2)n1)Nc1ccc(Oc2ccccc2)cc1` as the compound, how does the pIC50 read?
**A.** 4.60

**Q.** With `Cc1ccc(NC(=O)CSc2nnc(-c3ccccc3)c(-c3ccccc3)n2)c([N+](=O)[O-])c1` as the compound, how does the pIC50 read?
**A.** 4.34

**Q.** With `O=C(CSc1nnc(-c2ccccc2)c(-c2ccccc2)n1)Nc1ccc([N+](=O)[O-])cc1` as the compound, how does the pIC50 read?
**A.** 4.90

**Q.** With `O=C(CSc1nnc(-c2ccccc2)c(-c2ccccc2)n1)Nc1ccccc1` as the compound, how does the pIC50 read?
**A.** 4.15

**Q.** With `O=C(CSc1nnc(-c2ccccc2)c(-c2ccccc2)n1)Nc1ccc(F)cc1` as the compound, how does the pIC50 read?
**A.** 4.30

**Q.** With `O=C(CSc1nnc(-c2ccccc2)c(-c2ccccc2)n1)Nc1cc(Cl)ccc1Cl` as the compound, how does the pIC50 read?
**A.** 4.55

**Q.** With `Cc1cccc(NC(=O)CSc2nnc(-c3ccccc3)c(-c3ccccc3)n2)c1` as the compound, how does the pIC50 read?
**A.** 4.37

**Q.** With `CCOc1ccc(NC(=O)CSc2nnc(-c3ccccc3)c(-c3ccccc3)n2)cc1` as the compound, how does the pIC50 read?
**A.** 4.58
